# Measurements reported in patent US20040197777A1, “Polymorphisms of the OCTN1 and OCTN2 cation transporters associated with inflammatory bowel disorders” (priority 2001, published 2004).
# What was measured:
# [1] = system: Ulcerative Colitis; details: topical irrigation of the colon; cited from earlier work
# [2] = system: vascular inflammation; details: various models of vascular inflammation in rodents; cited from earlier work
# [3] = system: OCTN1; details: transfected Phoenix mouse fibroblast cells, 37° C.; FIG. 4
# Protocol: Transfected Phoenix mouse fibroblast cells were loaded with ^14C-labeled TEA for 30 min. at 37° C., washed twice in cold transport buffer, and then resuspended in transport medium. Efflux was initiated at 37° C. and measured at 0, 4, 8, 12 and 30 minutes. Measurements were taken by washing twice in cold transport buffer, solubilizing with 1× cell culture lysis reagent (Promega) and quantifying the 14C retention from 150 μL aliquots. Cellular protein content was determined according to the BCA method. For sodium-free experiments, cells were suspended in medium with sodium replaced isotonically with N-methyl-D-glucamine.
# [4] = system: HSF1 binding to the OCTN2 promoter; assay: OCTN2 gel shift assay (EMSA) with HeLa nuclear extracts; format: cell-based, human; details: nuclear extract of HeLa cells treated with arachidonate; no binding at 37° C. alone
# Protocol: For OCTN2 gel shift assays, human HeLa cells were grown in D-MEM supplemented with 10% fetal bovine serum, 2 mm […], 100 U/ml penicillin, and 100 μg/ml streptomycin at 37° C. in T-75 tissue culture flasks (Sarstedt). Heat-shocked cells were prepared by incubating the flasks in tissue culture incubator at 42° C. for 3 hr. For arachidonate experiment, the day before, the HeLa cells were starved over night with in serum-free D-MEM. The next day cells were washed twice with PBS. Cells were treated then with for 30 min with […] arachidonate at 37° C. The working concentrations were prepared from sodium arachidonate (Sigma) and stored in cold absolute ethanol as a 100 mM stock solution. Control cells were treated with an equivalent concentration of ethanol. Nuclear extracts were prepared by NP-40 based fractionation. This procedure is a modification of the procedure described by Baler R, Dahl G & Voellmy R, Mol. Cell. Biol. 13: 2486-2496 (1993). […] The protein concentration of the extracts was measured using the Bradford assay (Bio-Rad). […]
# The reaction products were separated electrophoretically on 4% polyacrylamide gel for 3 h at 200 V, dried and exposed to film and detected by autoradiography.
# [5] = system: OCTN2 promoter; assay: OCTN2 luciferase promoter assay; format: cell-based, human; details: HeLa cells, 20 μM arachidonic acid at 37° C.; FIG. 2
# Description: For the OCTN2 luciferase promoter assays, a Dual-Luciferase Reporter Assay System (Promega) was used to study the effect of the mutation on the OCTN2 promoter region. The OCTN2-promoter luciferase reporter gene constructs were generated by PCR amplification of approximately 2.7 kb OCTN2-promoter fragments using genomic DNA from a patient homozygous for the G allele as a template and ligation into Bg/II/MluI site of the promoterless luciferase vector pRL-null (Promega) that uses luciferase from Renilla reniformis as a reporter. For PCR primers, two primers, OCTN2-BglII:
# 5′-[…]-3′ (SEQ ID NO:13) and OCTN2-M1uI: 5′-[…]-3′ (SEQ ID NO:14) were used. […]
# To normalize the activity of the experimental reporter, constructs were cotransfected into HeLa cells with 20-fold less firefly luciferase plasmid pGL3-P as an internal control LipofectAMINE PLUS™ Reagent (Invitrogen, La Jolla, Calif., USA) as per the manufacturer's protocol. […] The luminescence from (Renilla luciferase reaction (“experimental” reporter a:) was measured simultaneously with the activity of firefly luciferase (“control” reporter) using Dual-Luciferase Reporter Assay System (Promega). The instrumentation used was a manual luminometer (Lumat LB 9501, Berthold). The cells transfected with empty vector under similar conditions served as control. All assays were carried out in triplicate.
# [6] = system: OCTN1; assay: OCTN1 transporter assay: uptake of radiolabeled carnitine by cells transfected with OCTN1 L503 or L503F; format: cell-based, human
# Protocol: Transient expression of OCTN1 (transporter assays) and OCT2 (luciferase promoter assays). For transient expression of wild-type or mutant (L503F; SEQ ID NO:7), HeLa cells were plated out at a density […] cells/dish in 100-mm plastic culture dishes (Falcon) and carnitine deficient human fibroblasts, (GM 10665) were plated out at a density 2.5×10^5 cells/well in 6-well plastic culture dishes (Falcon) 24 hr prior transfection with LipofectAMINE PLUS™ Reagent (Invitrogen, La Jolla, Calif., USA) as recommended by the manufacturer.
# For HeLa cell culture, human HeLa cells were grown in D-MEM supplemented with 10% fetal bovine serum, 2 mM L-glutamine, 100 U/ml penicillin, and 100 μg/ml streptomycin. […]
# For the OCTN1 transporter assays, carnitine transport measurements were made at room temperature using L-[^3H]carnitine as substrate, (specific activity 81 Ci/mmol, Moravek Biochemicals Inc.). […] The cells were then solubilized with 1× cell culture lysis reagent (Promega), and the associated radioactivity was quantitated in a liquid scintillation counter. Cellular protein content was determined according to the bicinchoninic acid method of Smith P K et al., Anal. Biochem. 150: 76-85 (1985), using BCA standard protein assay reagent kit (Pierce). […] The luciferase activity was measured on manual luminometer (Lumat LB 9501, Berthold). […]
structure (smiles),measurement,setting,value
"CCC(=O)O[C@H](CC(=O)[O-])C[N+](C)(C)C [PLC, propyonil-L-carnitine]",effect on symptoms of Ulcerative Colitis,[1],improve some symptoms of Ulcerative Colitis
same,effect on inflammation,[2],inhibits inflammation
"CC[N+](CC)(CC)CC [TEA, tetraethyl ammonium]",efflux of radiolabeled TEA by phenylalanine (L503F) variant of OCTN1 compared with leucine variant (L503),[3],significant decrease in efflux
CCCCC/C=C\C/C=C\C/C=C\C/C=C\CCCC(=O)O [arachidonic acid],binding of nuclear factor (HSF1) to oligonucleotide with wild-type G allele of OCTN2 promoter,[4],induced
same,decreased expression of luciferase construct with C allele of G-207C compared to the arachidonate-induced level,[5],3.3 fold
C[N+](C)(C)CC(O)CC(=O)[O-] (stereo not shown) [carnitine],"reduction toward vector baseline in uptake of radiolabeled carnitine, L503F vs leucine allele","[6]; cell line from an individual lacking OCTN2 expression, FIG. 3B",5.2 fold
same,"reduction toward the vector-alone baseline in uptake of radiolabeled carnitine, phenylalanine allele (L503F) vs leucine allele","[6]; transient transfection into HeLa cells, FIG. 3A",3.6 fold
